Columns and labels:
[1] = test system: P. falciparum 3D7 mature-stage parasites; conditions: typical value, strain not stated; cited from earlier work
[2] = test system: P. falciparum IPC5202 ring-stage parasites; test: Ring-stage survival assay (RSA), IPC5202; assay type: cell-based, Plasmodium falciparum; conditions: Plasmodium falciparum, 6 h; read-out: Ring-stage survival rate (RSA), percentage of viable parasites, IPC5202
Description: Ring-stage survival assays (RSA) were carried out as described in [21], with modifications. Parasite cultures were synchronized once, with 5% sorbitol, and in the next reinvasion cycle, twice, with a 6 h interval. […] Then, plates were centrifuged and supernatant replaced by drug-free culture media. After additional incubation during 66 h for ring-stage, and 42 h for mature-stage, susceptibility was assessed microscopically on Giemsa-stained thin blood smears by estimating the percentage of viable parasites that developed into a second generation of rings or trophozoites.

[3] = test system: V79 (Chinese hamster lung) cells
Description: (§1) Cytotoxicity was assessed on the mammalian cell lines HepG2-A16 (human hepatoma) and V79 (Chinese hamster lung), using a MTT based assay, as previously described. […] V79 and HepG2 cell lines were incubated for 24 and 48 h, respectively (media changed at 24 h intervals). Absorbance was read at 570 nm on a multi-mode microplate reader (Triad, Dynex Technologies), to produce a log dose-dependence curve. The LD50 value for each compound was estimated by non-linear interpolation of the dose-dependence curve (GraphPad Software).

[4] = test system: HepG2-A16 (human hepatoma) cells
Description: as §1

[5] = test system: P. falciparum IPC4912 (artemisinin-resistant, K13 I543T); test: SYBR Green I assay, IC50, strain IPC4912; assay type: cell-based, Plasmodium falciparum; conditions: Plasmodium falciparum, read-out: P. falciparum IC50 ± SD, IPC4912
Description: Staging and parasitaemia were determined by light microscopy of Giemsa-stained thin blood smears. Anti-malarial activity was determined using the SYBR Green I assay, as previously described. Briefly, early ring stage parasites (> 80% of rings) were challenged with a 1:3 serial dilution of each compound, in concentrations ranging from 10,000–0.169 nM. Fluorescence intensity was measured with a multi-mode microplate reader (Triad, Dynex Technologies), with excitation and emission wavelengths of 485 and 535 nm, respectively, and analysed by nonlinear regression using GraphPad Prism to determine IC50 values.

[6] = test system: P. falciparum IPC5202 (artemisinin-resistant, K13 R539T); test: SYBR Green I assay, IC50, strain IPC5202; assay type: cell-based, Plasmodium falciparum; conditions: Plasmodium falciparum, read-out: P. falciparum IC50 ± SD, IPC5202, strain IPC5202
Description: Staging and parasitaemia were determined by light microscopy of Giemsa-stained thin blood smears. Anti-malarial activity was determined using the SYBR Green I assay, as previously described.

[7] = test system: P. falciparum Dd2 (chloroquine-resistant, mefloquine-resistant); design: method as in Lobo et al, 2016; conditions: ref Lobo et al, 2016, cited from earlier work
[8] = test system: P. falciparum 3D7 (chloroquine and mefloquine sensitive); design: method as in Lobo et al, 2016; conditions: strain 3D7; ref Lobo et al, 2016; read-out: P. falciparum IC50 ± SD, 3D7; cited from earlier work

Row | SMILES | viable mature-stage parasites allowed [1] [%] | viability at 0.7 µM [2] [%] | LD50 V79 ([3]; Chinese hamster, 24 h) [mM] | LD50 HepG2 ([4]; human, 48 h) [mM] | IC50 [5] [nM] | IC50 [6] [nM] | Resistance Index RIa = IC50 (Dd2)/IC50 (3D7) ([7]; Dd2 vs 3D7) | IC50 ([7]; strain Dd2, read-out: P. falciparum IC50 ± SD, Dd2) [nM] | IC50 [8] [nM] | Selectivity index LD50 (V79)/IC50 (3D7) ([3]; V79 vs 3D7) | Selectivity index LD50 (V79)/IC50 (Dd2) ([3]; V79 vs Dd2) | Selectivity index LD50 (HepG2)/IC50 (3D7) ([4]; HepG2 vs 3D7) | Selectivity index LD50 (HepG2)/IC50 (Dd2) ([4]; HepG2 vs Dd2)
1 | C[C@H]1[C@@H](O)O[C@@H]2O[C@@]3(C)CC[C@H]4[C@H](C)CC[C@@H]1[C@@]24OO3 [DHA, dihydroartemisinin, reference compound] | ~1 | ≤ 25 | > 1 | 1.0 | 3.7 ± 2 | 6.2 ± 1.6 | – | – | – | – | – | – | –
2 | O=C1CCC2(CC1)OOC1(O2)C2CC3CC(C2)CC1C3 (stereo not shown) [LC50] | – | – | – | – | – | – | 1.7 | 23.6 ± 8.4 | 14 ± 6.7 | 71428.6 | 42372.8 | 71428.6 | 42372.8

— article PMC5883364 (Malaria Journal, 2018)
